Reference: patent US20240050428A1 (Cullgen (Shanghai), Inc., priority 2020, published 2024)
Read-outs that look alike come from different tables or passages of the source.

Experiments:
MV4;11 cells = assay: Cell viability assay (CellTiter-Glo) in MV4;11 cells, alone or with gilteritinib; type: cell-based; details: Homo sapiens, MV4-11, 72 h, MV4;11 cells, three days, CellTiter-Glo, read-out: MV4
MOLM-13 cells = assay: Cell viability assay (CellTiter-Glo) in MOLM-13 cells, alone or with gilteritinib; type: cell-based; details: Homo sapiens, MOLM-13, 72 h, MOLM-13 cells, three days, CellTiter-Glo
[1] = compound alone (without gilteritinib), 11 IC50
[2] = compound with gilteritinib 10 nM, 11 IC50 gilteritinib
[3] = compound alone (without gilteritinib), read-out: MOLM-13 IC50
[4] = compound with gilteritinib 20 nM, read-out: MOLM-13 IC50 gilteritinib

| SMILES | IC50 (MV4;11 cells; [1]) [µM] | IC50 (MV4;11 cells; [2]) [µM] | IC50 (MOLM-13 cells; [3]) [µM] | IC50 (MOLM-13 cells; [4]) [µM] |
| --- | --- | --- | --- | --- |
| CN1CCN(c2ccc3ncc(-c4cnn([C@H]5C[C@H](CCCNc6ccc7c(c6)C(=O)N(C6CCC(=O)NC6=O)C7=O)C5)c4)nc3c2)CC12CC2 (stereo partly drawn) [GS-414, 2-(2,6-dioxopiperidin-3-yl)-5-((3-(trans-3-(4-(7-(4-methyl-4,7-diazaspiro[2.5]octan-7-yl)quinoxalin-2-yl)-1H-pyrazol-1-yl)cyclobutyl)propyl)amino)isoindoline-1,3-dione] | 0.1 to 1 | 0.01 to 0.1 | 0.1 to 1 | 0.01 to 0.1 |
| O=C1CCC(N2C(=O)c3ccc(NCCC[C@H]4C[C@H](n5cc(-c6cnc7ccc(N8C[C@H]9C[C@@H]8CN9)cc7n6)cn5)C4)cc3C2=O)C(=O)N1 (stereo partly drawn) [GS-415, 5-((3-(trans-3-(4-(7-((1R,4R)-2,5-diazabicyclo[2.2.1]heptan-2-yl)quinoxalin-2-yl)-1H-pyrazol-1-yl)cyclobutyl)propyl)amino)-2-(2,6-dioxopiperidin-3-yl)isoindoline-1,3-dione] | > 1 | > 1 | > 1 | > 1 |
| CN1CCN(c2cccc(-c3cnn([C@H]4C[C@H](CNc5ccc6c(c5)C(=O)N(C5CCC(=O)NC5=O)C6=O)C4)c3)n2)CC1 (stereo partly drawn) [GS-416, 2-(2,6-dioxopiperidin-3-yl)-5-(((trans-3-(4-(6-(4-methylpiperazin-1-yl)pyridin-2-yl)-1H-pyrazol-1-yl)cyclobutyl)methyl)amino)isoindoline-1,3-dione] | > 1 | > 1 | > 1 | 0.1 to 1 |
| Cc1nn([C@H]2C[C@H](CCCNc3ccc4c(c3)C(=O)N(C3CCC(=O)NC3=O)C4=O)C2)cc1-c1cnc2c(N3CCN(C)CC3)cccc2n1 (stereo partly drawn) [GS-417, 2-(2,6-dioxopiperidin-3-yl)-5-((3-(trans-3-(3-methyl-4-(5-(4-methylpiperazin-1-yl)quinoxalin-2-yl)-1H-pyrazol-1-yl)cyclobutyl)propyl)amino)isoindoline-1,3-dione] | 0.1 to 1 | 0.01 to 0.1 | 0.1 to 1 | 0.01 to 0.1 |
| Cc1nn([C@H]2C[C@H](CCCNc3ccc4c(c3)C(=O)N(C3CCC(=O)NC3=O)C4=O)C2)cc1-c1cnc2c(C3CCN(C)CC3)cccc2n1 (stereo partly drawn) [GS-418, 2-(2,6-dioxopiperidin-3-yl)-5-((3-(trans-3-(3-methyl-4-(5-(1-methylpiperidin-4-yl)quinoxalin-2-yl)-1H-pyrazol-1-yl)cyclobutyl)propyl)amino)isoindoline-1,3-dione] | 0.01 to 0.1 | < 0.01 | 0.01 to 0.1 | < 0.01 |
| CN1CCC(c2ccc3nc(-c4cnn([C@H]5C[C@H](CCCNc6ccc7c(c6)C(=O)N(C6CCC(=O)NC6=O)C7=O)C5)c4)cnc3c2)CC1 (stereo partly drawn) [GS-419, 2-(2,6-dioxopiperidin-3-yl)-5-((3-(trans-3-(4-(6-(1-methylpiperidin-4-yl)quinoxalin-2-yl)-1H-pyrazol-1-yl)cyclobutyl)propyl)amino)isoindoline-1,3-dione] | 0.01 to 0.1 | 0.01 to 0.1 | 0.01 to 0.1 | < 0.01 |
| O=C1CCC(N2C(=O)c3ccc(NCCC[C@H]4C[C@H](n5cc(-c6cnc7cc(C8CCOCC8)ccc7n6)cn5)C4)cc3C2=O)C(=O)N1 (stereo partly drawn) [GS-420, 2-(2,6-dioxopiperidin-3-yl)-5-((3-(trans-3-(4-(6-(tetrahydro-2H-pyran-4-yl)quinoxalin-2-yl)-1H-pyrazol-1-yl)cyclobutyl)propyl)amino)isoindoline-1,3-dione] | 0.1 to 1 | 0.01 to 0.1 | 0.1 to 1 | 0.01 to 0.1 |
| O=C1CCC(N2C(=O)c3ccc(NCCC[C@H]4C[C@H](n5cc(-c6cnc7cc(C8CCNCC8)ccc7n6)cn5)C4)cc3C2=O)C(=O)N1 (stereo partly drawn) [GS-421, 2-(2,6-dioxopiperidin-3-yl)-5-((3-(trans-3-(4-(6-(piperidin-4-yl)quinoxalin-2-yl)-1H-pyrazol-1-yl)cyclobutyl)propyl)amino)isoindoline-1,3-dione] | 0.01 to 0.1 | < 0.01 | 0.01 to 0.1 | < 0.01 |
| Cc1nn([C@H]2C[C@@H](CCCNc3ccc4c(c3)C(=O)N(C3CCC(=O)NC3=O)C4=O)C2)cc1-c1cnc2cc(N3CCOCC3)ccc2n1 (stereo partly drawn) [GS-422, 2-(2,6-dioxopiperidin-3-yl)-5-((3-(cis-3-(3-methyl-4-(6-morpholinoquinoxalin-2-yl)-1H-pyrazol-1-yl)cyclobutyl)propyl)amino)isoindoline-1,3-dione] | 0.01 to 0.1 | < 0.01 | 0.01 to 0.1 | < 0.01 |
| CN1CCN(c2ccnc(-c3cnn([C@H]4C[C@H](CCCNc5ccc6c(c5)C(=O)N(C5CCC(=O)NC5=O)C6=O)C4)c3)n2)CC1 (stereo partly drawn) [GS-423, 2-(2,6-dioxopiperidin-3-yl)-5-((3-(trans-3-(4-(4-(4-methylpiperazin-1-yl)pyrimidin-2-yl)-1H-pyrazol-1-yl)cyclobutyl)propyl)amino)isoindoline-1,3-dione] | 0.1 to 1 | 0.01 to 0.1 | 0.1 to 1 | 0.01 to 0.1 |
| CN1CCN(c2ccnc(-c3cnn([C@H]4C[C@H](CNc5ccc6c(c5)C(=O)N(C5CCC(=O)NC5=O)C6=O)C4)c3)n2)CC1 (stereo partly drawn) [GS-424, 2-(2,6-dioxopiperidin-3-yl)-5-(((trans-3-(4-(4-(4-methylpiperazin-1-yl)pyrimidin-2-yl)-1H-pyrazol-1-yl)cyclobutyl)methyl)amino)isoindoline-1,3-dione] | > 1 | > 1 | 0.1 to 1 | 0.01 to 0.1 |
| O=C1CCC(N2C(=O)c3ccc(NCCC[C@H]4C[C@@H](n5cc(-c6cnc7cc(N8CCNCC8)ccc7n6)cn5)C4)cc3C2=O)C(=O)N1 (stereo partly drawn) [GS-425, 2-(2,6-dioxopiperidin-3-yl)-5-((3-(cis-3-(4-(6-(piperazin-1-yl)quinoxalin-2-yl)-1H-pyrazol-1-yl)cyclobutyl)propyl)amino)isoindoline-1,3-dione] | > 1 | 0.01 to 0.1 | 0.1 to 1 | 0.01 to 0.1 |
| CN1CCC(c2cccc3nc(-c4cnn([C@H]5C[C@H](CCCNc6ccc7c(c6)C(=O)N(C6CCC(=O)NC6=O)C7=O)C5)c4)cnc23)CC1 (stereo partly drawn) [GS-426, 2-(2,6-dioxopiperidin-3-yl)-5-((3-(trans-3-(4-(5-(1-methylpiperidin-4-yl)quinoxalin-2-yl)-1H-pyrazol-1-yl)cyclobutyl)propyl)amino)isoindoline-1,3-dione] | 0.01 to 0.1 | < 0.01 | 0.01 to 0.1 | < 0.01 |
| O=C1CCC(N2C(=O)c3ccc(NCCC[C@H]4C[C@H](n5cc(-c6cnc7c(C8CCOCC8)cccc7n6)cn5)C4)cc3C2=O)C(=O)N1 (stereo partly drawn) [GS-427, 2-(2,6-dioxopiperidin-3-yl)-5-((3-(trans-3-(4-(5-(tetrahydro-2H-pyran-4-yl)quinoxalin-2-yl)-1H-pyrazol-1-yl)cyclobutyl)propyl)amino)isoindoline-1,3-dione] | 0.01 to 0.1 | < 0.01 | 0.01 to 0.1 | < 0.01 |
| Cc1nn([C@H]2C[C@@H](CCCNc3ccc4c(c3)C(=O)N(C3CCC(=O)NC3=O)C4=O)C2)cc1-c1cnc2cc(N3CCN(C)CC3)ccc2n1 (stereo partly drawn) [GS-428, 2-(2,6-dioxopiperidin-3-yl)-5-((3-(cis-3-(3-methyl-4-(6-(4-methylpiperazin-1-yl)quinoxalin-2-yl)-1H-pyrazol-1-yl)cyclobutyl)propyl)amino)isoindoline-1,3-dione] | 0.01 to 0.1 | < 0.01 | 0.01 to 0.1 | < 0.01 |
| O=C1CCC(N2C(=O)c3ccc(NCCC[C@H]4C[C@@H](n5cc(-c6cnc7cc(C8CCNCC8)ccc7n6)cn5)C4)cc3C2=O)C(=O)N1 (stereo partly drawn) [GS-429, 2-(2,6-dioxopiperidin-3-yl)-5-((3-(cis-3-(4-(6-(piperidin-4-yl)quinoxalin-2-yl)-1H-pyrazol-1-yl)cyclobutyl)propyl)amino)isoindoline-1,3-dione] | 0.1 to 1 | < 0.01 | 0.1 to 1 | 0.01 to 0.1 |
| O=C1CCC(N2C(=O)c3ccc(NCCC[C@H]4C[C@@H](n5cc(-c6cnc7cc(C8CCOCC8)ccc7n6)cn5)C4)cc3C2=O)C(=O)N1 (stereo partly drawn) [GS-430, 2-(2,6-dioxopiperidin-3-yl)-5-((3-(cis-3-(4-(6-(tetrahydro-2H-pyran-4-yl)quinoxalin-2-yl)-1H-pyrazol-1-yl)cyclobutyl)propyl)amino)isoindoline-1,3-dione] | 0.1 to 1 | 0.01 to 0.1 | > 1 | 0.01 to 0.1 |
| O=C1CCC(N2C(=O)c3ccc(NCCC[C@H]4C[C@H](n5cc(-c6cnc7c(C8CCNCC8)cccc7n6)cn5)C4)cc3C2=O)C(=O)N1 (stereo partly drawn) [GS-431, 2-(2,6-dioxopiperidin-3-yl)-5-((3-(trans-3-(4-(5-(piperidin-4-yl)quinoxalin-2-yl)-1H-pyrazol-1-yl)cyclobutyl)propyl)amino)isoindoline-1,3-dione] | < 0.01 | < 0.01 | 0.01 to 0.1 | < 0.01 |
| CN1CCC(c2ccc3nc(-c4cnn([C@H]5C[C@@H](CCCNc6ccc7c(c6)C(=O)N(C6CCC(=O)NC6=O)C7=O)C5)c4)cnc3c2)CC1 (stereo partly drawn) [GS-432, 2-(2,6-dioxopiperidin-3-yl)-5-((3-(cis-3-(4-(6-(1-methylpiperidin-4-yl)quinoxalin-2-yl)-1H-pyrazol-1-yl)cyclobutyl)propyl)amino)isoindoline-1,3-dione] | > 1 | 0.01 to 0.1 | > 1 | 0.01 to 0.1 |
| O=C1CCC(N2C(=O)c3ccc(NCCC[C@H]4C[C@H](n5cc(C6CCOCC6)cn5)C4)cc3C2=O)C(=O)N1 (stereo partly drawn) [GS-433, 2-(2,6-dioxopiperidin-3-yl)-5-((3-(trans-3-(4-(tetrahydro-2H-pyran-4-yl)-1H-pyrazol-1-yl)cyclobutyl)propyl)amino)isoindoline-1,3-dione] | > 1 | > 1 | > 1 | > 1 |
